# Test results published in patent US9884818B2, “Sulphamoylpyrrolamide derivatives and the use thereof as medicaments for the treatment of hepatitis B” (Janssen Sciences Ireland UC, priority 2013, dated 2018).
# Key:
# [1] = system: HBV; assay: Anti-HBV activity, HepG2.2.15 stable transfected cell line, HBV DNA from secreted virions by realtime PCR; assay type: cell-based; settings: Hepatitis B virus, HepG2.2.15, 144 h, HepG2.2.15 cells, 6 days of treatment, HBV DNA from secreted virions; read-out: HepG2 2.15 EC50
# [2] = system: HBV; assay: Anti-HBV activity, HepG2.117 inducibly HBV producing cell line (Tet-off), intracellular HBV DNA by realtime PCR; assay type: cell-based; settings: Hepatitis B virus, HepG2.117, 72 h, HepG2.117 cells, 3 days of treatment, intracellular HBV DNA; read-out: HepG2 117 EC50
# [3] = Cytotoxicity in HepG2 cells, Resazurin viability assay; settings: human, HepG2 cells, HepG2 4 days CC50 (μM), incubated for 4 days, Resazurin assay
SMILES,EC50 [1],EC50 [2],CC50 at 4 days [3]
"C[C@@H](NS(=O)(=O)c1cn(C)c(C(=O)Nc2ccc(F)c(C(F)F)c2F)c1F)C(F)(F)F [Compound 287, N-[3-(difluoromethyl)-2,4-difluoro-phenyl]-3-fluoro-1-methyl-4-[[(1R)-2,2,2-trifluoro-1-methyl-ethyl]sulfamoyl]pyrrole-2-carboxamide]",0.004 µM,0.005 µM,> 25 µM
"Cc1cc(NC(=O)c2cc(S(=O)(=O)NC(C)(C)C(=O)N(C)C)cn2C)ccc1F [Compound 63, 4-[[2-(dimethylamino)-1,1-dimethyl-2-oxo-ethyl]sulfamoyl]-N-(4-fluoro-3-methyl-phenyl)-1-methyl-pyrrole-2-carboxamide]",0.06 µM,0.04 µM,> 25 µM
"Cc1c(S(=O)(=O)N[C@H](C)C(F)(F)F)cn(C)c1C(=O)Nc1cc(F)c(F)c(Cl)c1 [Compound 202, N-(3-Chloro-4,5-difluorophenyl)-1,3-dimethyl-4-{[(1R)-2,2,2-trifluoro-1-methylethyl]sulfamoyl}-1H-pyrrole-2-carboxamide]",0.03 µM,0.02 µM,> 25 µM
"CC(C)NS(=O)(=O)c1cc(C(=O)Nc2ccc(F)c(C#N)c2F)n(C)c1 [Compound 178, N-(3-Cyano-2,4-difluorophenyl)-1-methyl-4-[(1-methylethyl)sulfamoyl]-1H-pyrrole-2-carboxamide]",0.04 µM,0.09 µM,> 25 µM
"Cn1cc(S(=O)(=O)NCC(F)F)cc1C(=O)Nc1ccc(F)c(Br)c1 [Compound 127, N-(3-Bromo-4-fluorophenyl)-4-[(2,2-difluoroethyl)sulfamoyl]-1-methyl-1H-pyrrole-2-carboxamide]",0.05 µM,0.19 µM,> 25 µM
"CC(C)NS(=O)(=O)c1cc(C(=O)Nc2cccc(C#N)c2F)n(C)c1 [Compound 176, N-(3-Cyano-2-fluorophenyl)-1-methyl-4-[(1-methylyl)sulfamoyl]-1H-pyrrole-2-carboxamide]",0.5 µM,0.37 µM,> 25 µM
"Cn1cc(S(=O)(=O)NC2(C)COC2)cc1C(=O)Nc1cc(F)c(F)c(Cl)c1 [Compound 59, N-(3-chloro-4,5-difluoro-phenyl)-1-methyl-4-[(3-methyloxetan-3-yl)-sulfamoyl]pyrrole-2-carboxamide]",0.03 µM,0.03 µM,> 25 µM
"Cn1cc(S(=O)(=O)NC2(C)COC2)cc1C(=O)Nc1ccc(F)c(F)c1 [Compound 20, N-(3,4-difluorophenyl)-1-methyl-4-[(3-methyloxetan-3-yl)sulfamoyl]pyrrole-2-carboxamide]",0.07 µM,0.06 µM,> 25 µM
"CC[C@@H](C)NS(=O)(=O)c1cn(C)c(C(=O)Nc2ccc(F)c(C#N)c2)c1F [Compound 186, N-(3-Cyano-4-fluorophenyl)-3-fluoro-1-methyl-4-{[(1R)-1-methyl-propyl]sulfamoyl}-1H-pyrrole-2-carboxamide]",0.008 µM,0.005 µM,> 25 µM
"Cc1cc(NC(=O)c2cc(S(=O)(=O)N[C@H]3CCOC3)cn2C)cc(F)c1F [Compound 37, N-(3,4-difluoro-5-methyl-phenyl)-1-methyl-4-[[(3S)-tetrahydrofuran-3-yl]-sulfamoyl]pyrrole-2-carboxamide]",0.73 µM,0.38 µM,> 25 µM
"Cc1c(S(=O)(=O)N[C@H](C)C(F)(F)F)cn(C)c1C(=O)Nc1ccc(F)c(C(F)(F)F)c1 [Compound 153, N-[4-Fluoro-3-(trifluoromethyl)phenyl]-1,3-dimethyl-4-{[(1R)-2,2,2-trifluoro-1-methylethyl]sulfamoyl}-1H-pyrrole-2-carboxamide]",0.27 µM,0.15 µM,> 25 µM
"C[C@H](NS(=O)(=O)c1cc(C(=O)Nc2ccc(F)c(C#N)c2)n(C)c1)C(C)(F)F [Compound 297, N-(3-cyano-4-fluoro-phenyl)-4-[[(1S)-2,2-difluoro-1-methyl-propyl]sulfamoyl]-1-methyl-pyrrole-2-carboxamide]",0.04 µM,0.09 µM,22.6 µM
"Cn1cc(S(=O)(=O)NCC(F)(F)F)cc1C(=O)Nc1ccc(F)c(Cl)c1 [Compound 131, N-(3-Chloro-4-fluorophenyl)-1-methyl-4-[(2,2,2-trifluoroethyl)sulfamoyl]-1H-pyrrole-2-carboxamide]",0.01 µM,0.01 µM,> 25 µM
"Cc1cc(NC(=O)c2c(C)c(S(=O)(=O)NC3(C)COC3)c(C)n2C)ccc1F [Compound 88, N-(4-Fluoro-3-methylphenyl)-1,3,5-trimethyl-4-[(3-methyloxetan-3-yl)sulfamoyl]-1H-pyrrole-2-carboxamide]",0.02 µM,0.03 µM,> 25 µM
"Cn1cc(S(=O)(=O)N[C@H]2CCOC2)cc1C(=O)Nc1ccc(F)c(F)c1 [Compound 21, N-(3,4-difluorophenyl)-1-methyl-4-[[(3S)-tetrahydrofuran-3-yl]-sulfamoyl]pyrrole-2-carboxamide]",0.22 µM,0.84 µM,> 25 µM
"C[C@@H](NS(=O)(=O)c1cn(C)c(C(=O)Nc2cccc(C#N)c2)c1F)C(F)(F)F [Compound 180, N-(3-Cyanophenyl)-3-fluoro-1-methyl-4-{[(1R)-2,2,2-trifluoro-1-methylethyl]sulfamoyl}-1H-pyrrole-2-carboxamide]",0.01 µM,0.02 µM,> 25 µM
"Cn1cc(S(=O)(=O)NC(C)(C)C)cc1C(=O)Nc1cc(F)c(F)c(Cl)c1 [Compound 58, 4-(tert-butylsulfamoyl)-N-(3-chloro-4,5-difluoro-phenyl)-1-methyl-pyrrole-2-carboxamide]",0.09 µM,0.06 µM,> 25 µM
"CC[C@@H](C)NS(=O)(=O)c1cc(C(=O)Nc2cc(C)c(F)c(F)c2)n(C)c1 [Compound 34, N-(3,4-difluoro-5-methyl-phenyl)-1-methyl-4-[[(1R)-1-methylpropyl]-sulfamoyl]pyrrole-2-carboxamide]",0.03 µM,< 0.02 µM,> 25 µM
"CC(C)NS(=O)(=O)c1cc(C(=O)Nc2cc(F)c(F)c(Cl)c2)n(C)c1 [Compound 57, N-(3-chloro-4,5-difluoro-phenyl)-4-(isopropylsulfamoyl)-1-methyl-pyrrole-2-carboxamide]",0.06 µM,0.05 µM,> 25 µM
"Cc1cc(NC(=O)c2cc(S(=O)(=O)NC3(CO)COC3)cn2C)ccc1F [Compound 10, N-(4-fluoro-3-methyl-phenyl)-4-[[3-(hydroxymethyl)oxetan-3-yl]sulfamoyl]-1-methyl-pyrrole-2-carboxamide]",0.11 µM,0.08 µM,> 25 µM
"CC(C)NS(=O)(=O)c1cn(C)c(C(=O)Nc2ccc(F)c(C#N)c2)c1Cl [Compound 269, 3-Chloro-N-(3-cyano-4-fluorophenyl)-1-methyl-4-[(1-methylethyl)sulfamoyl]-1H-pyrrole-2-carboxamide]",0.05 µM,0.07 µM,> 25 µM
"Cc1c(F)ccc(NC(=O)c2cc(S(=O)(=O)NC(C)(C)C(F)(F)F)cn2C)c1F [Compound 118, N-(2,4-Difluoro-3-methylphenyl)-1-methyl-4-[(2,2,2-trifluoro-1,1-dimethylethyl)sulfamoyl]-1H-pyrrole-2-carboxamide]",0.05 µM,0.02 µM,> 25 µM
"Cn1cc(S(=O)(=O)NCC(F)(F)F)cc1C(=O)Nc1ccc(F)c(F)c1 [Compound 132, N-(3,4-Difluorophenyl)-1-methyl-4-[(2,2,2-trifluoroethyl)sulfamoyl]-1H-pyrrole-2-carboxamide]",0.08 µM,0.07 µM,> 25 µM
"Cc1cc(NC(=O)c2cc(S(=O)(=O)NC3(C)COC3)cn2C)ccc1F [Compound 5, N-(4-fluoro-3-methyl-phenyl)-1-methyl-4-[(3-methyloxetan-3-yl)-sulfamoyl]pyrrole-2-carboxamide]",0.03 µM,0.02 µM,> 25 µM
"CC(NS(=O)(=O)c1cc(C(=O)Nc2ccc(F)c(Cl)c2F)n(C)c1)C(F)F (stereo not drawn) [Compound 252, N-(3-chloro-2,4-difluoro-phenyl)-4-[(2,2-difluoro-1-methyl-ethyl)sulfamoyl]-1-methyl-1H-pyrrole-2-carboxamide]",0.05 µM,0.08 µM,> 25 µM
"Cn1cc(S(=O)(=O)NCC(F)F)cc1C(=O)Nc1ccc(F)c(F)c1 [Compound 129, 4-[(2,2-Difluoroethyl)sulfamoyl]-N-(3,4-difluorophenyl)-1-methyl-1H-pyrrole-2-carboxamide]",0.17 µM,0.08 µM,> 25 µM
"CCC(C)(NS(=O)(=O)c1cc(C(=O)Nc2ccc(F)c(Cl)c2F)n(C)c1)C(F)(F)F (stereo not drawn) [Compound 257, N-(3-chloro-2,4-difluoro-phenyl)-1-methyl-4-{[1-methyl-1-(trifluoro-methyl)propyl]sulfamoyl}-1H-pyrrole-2-carboxamide]",0.08 µM,0.09 µM,> 25 µM
"Cn1cc(S(=O)(=O)NC2(C)COC2)cc1C(=O)Nc1cc(F)cc(C#N)c1 [Compound 54, N-(3-cyano-5-fluoro-phenyl)-1-methyl-4-[(3-methyloxetan-3-yl)-sulfamoyl]pyrrole-2-carboxamide]",0.2 µM,0.25 µM,> 25 µM
"CC[C@@H](C)NS(=O)(=O)c1cc(C(=O)Nc2ccc(F)c(F)c2)n(C)c1 [Compound 23, N-(3,4-difluorophenyl)-1-methyl-4-[[(1R)-1-methylpropyl]sulfamoyl]pyrrole-2-carboxamide]",0.02 µM,0.13 µM,> 25 µM
